Holding throughout (format): in vivo, mice
Experiment [1] deals with BoM-1833 cells. The experiment can be described thus: Bone metastasis assay, intracardiac injection of TGFβ-pretreated BoM-1833 cells. The conditions noted are these: BoM-1833 cells pre-incubated with TGFβ. The protocol: (§1) FIGS. 3A-D. (A) LM2 cells and a clinically-derived pleural effusion sample (CN34.2A) were pretreated with TGFβ for 6 h. LM2 (2×10^5) and CN34.2A (4×10^5) cells were injected into the lateral tail vein and lung colonization was analyzed by in vivo bioluminescence imaging. (B) Bar graph represents 24 h time point measurements of the normalized photon flux from animals injected with either LM2 or CN34.2A cells. (C) Bone metastasis assays were performed by intracardiac injection of LM2 or BoM-1833 cells (3×10^4). Samples were pretreated with […] of TGFβ for 6 h and compared to an untreated control. (D) Bar graphs represent seven-day time point analysis of the normalized photon flux from the mouse hind limbs.
(§2) To investigate the selectivity of this lung metastasis-priming effect, we tested the effect of TGFβ pre-incubation on the establishment of bone metastases. […]
(§3) For primary tumor analysis, 5×10^5 viable single cells were re-suspended in a 1:1 mixture of PBS and growth-factor-reduced Matrigel (BD Biosciences) and injected orthotopically into both mammary gland number four in a total volume of 100 μL as previously described (Minn et al., 2005). Primary tumor growth rates were analyzed by measuring tumour length (L) and width (W), and calculating tumor volume based on the formula […]. […] Lung metastatic progression was again monitored and quantified using bioluminescence. […]

For experiment [2], the system named is CN34.2A cells. The experiment can be described thus: Lung colonization (priming) assay, tail vein injection of TGFβ-pretreated CN34.2A cells. Particulars: CN34.2A cells pre-treated with TGFβ 6 h; 24 h time point, normalized photon flux. The protocol: as §1, with “(D) Bar graphs represent seven-day time point analysis of the normalized photon flux from the mouse hind limbs.” left out
(§4) All animal work was done in accordance with a protocol approved by the MSKCC Institutional Animal Care and Use Committee. […] Seven days after mastectomies, lung metastases were monitored and quantified using non-invasive bioluminescence as previously described (Minn et al., 2005).
as §3

Experiment [3] deals with LM2 cells. Briefly: Lung colonization (priming) assay, tail vein injection of TGFβ-pretreated LM2 cells. As to the method: as §1, with “(D) Bar graphs represent seven-day time point analysis of the normalized photon flux from the mouse hind limbs.” left out
as §4, §3

Experiment [4] concerns LM2 cells. The experiment can be described thus: Bone metastasis assay, intracardiac injection of TGFβ-pretreated LM2 cells. The conditions noted are these: LM2 cells pre-treated with TGFβ prior to inoculation into the arterial circulation. As to the method:
as §1, §2, §3

“TGFβ: cytokine transforming growth factor beta; TGFβ1 (R&D Systems) used to treat cells for 3 or 6 h”: the “ability to form bone metastases” value in experiment [1] and in experiment [4] was “did not increase” each time. Moreover, the “early seeding of the bones” value in experiment [1] (seven-day time point, hind limbs) is “no discernible effect”. The “increase of lung seeding activity” value in experiment [2] is listed as “five”; in experiment [3] (LM2 cells pre-treated with TGFβ 6 h, 24 h time point, normalized photon flux), “three”. For the same substance, the “lung colonizing activity (retention of cells in the lungs)” value in experiment [3] (LM2 cells incubated with TGFβ for 6 h prior to tail vein inoculation, 24 h after inoculation, bioluminescence) is reported as “significantly increased”.

The values are drawn from patent US20110053804A1, “Gene Signatures for the Prognosis of Cancer” (SLOAN-KETTERING INSTITUTE FOR CANCER RESEARCH, priority 2008, published 2011).
